# Legend:
# [1] = target: HIV-1 Env (Human immunodeficiency virus type 1 group M subtype B, UniProt P03375); conditions: cited from earlier work
# [2] = tested on: HIV-1 EnvNL4-3; assay: smFRET imaging of dually labelled HIV-1 Env on surface-immobilized virions (TIRF); type: biochemical, HIV-1NL4-3; conditions: for agonist/antagonist character by smFRET (activation of HIV-1 Env): 100 μM, FIG. 10c, d; for effect of inhibitor on smFRET state distribution of HIV-1 Env: tested at concentrations 10-100-fold above the Kd (100 μM), FIG. 10
# Description: All HIV-1 virions were generated by transfection of pNL4-3-based plasmids in HEK293T cells. Virus was harvested 24 h post-transfection and concentrated by centrifugation. Dually tagged viruses were site-specifically labelled at each peptide insert simultaneously through incubation with appropriate fluorophore conjugates and labelling enzymes. The viruses were purified away from unbound dye by density-gradient ultracentrifugation. Viruses were immobilized on streptavidin-coated quartz microscope slides, and imaged with a lab-built prism-based TIRF microscope equipped with multiple laser. Donor and acceptor fluorescence were separated with a dichroic filter, and imaged on parallel EMCCD cameras. All analysis was carried out with custom-designed Matlab software.
# The tagged Envs (V1-3-Q3/V4-2-A1 and V1-3-A1/V4-2-A1) were subcloned from pNL4-3 into a pNL4-3 construct lacking reverse transcriptase (pNL4-3 ΔRT). Virus for smFRET experiments was generated by co-transfecting HEK293T cells with tagged-Env-containing pNL4-3 ΔRT and a 40-fold excess of wild-type-Env containing pNL4-3 ΔRT. Virus was harvested 24 h post-transfection and concentrated by centrifugation over a 15% sucrose cushion.
# All virus labelling reactions were carried out in buffer containing 50 mM HEPES pH7.5, 10 mM MgCl2, 10 mM CaCl2. Virus containing the V1-3-Q3 and V4-2-A1 peptide insertions was labelled by incubation with 0.5 μM AlexaFluor647-cadaverine (Invitrogen), 0.5 μM Cy3-coenzyme A (Cy3-CoA), 0.65 μM transglutaminase (Sigma) (Lin et al., J Am Chem Soc 128, no. 14 (2006): 4542-3), and 5 μM AcpS (Zhou et al., ACS Chem Biol 2, no. 5 (2007): 337-46) for 2 h at 37° C. Alternatively, virus containing the V1-3-A1 and V4-2-A1 peptide insertions was labelled by incubation with 0.5 μM Cy5-CoA, 0.5 μM Cy3-CoA, and 5 μM AcpS for 2 h at 37° C. […]
# Fluorescently labelled virus, containing DSPE-PEG2,000-biotin in the viral membrane was immobilized on passivated streptavidin-coated quartz microscope slides and imaged on a lab-built prism-based TIRF microscope. […] Donor and acceptor fluorescence were collected through a high-NA objective, separated with a 650DCXR dichroic filter (Chroma), and imaged on two parallel EMCCD cameras (Photometrics). Movies of surface-immobilized viruses were recorded at 25 frames/s for 40 s at room temperature. […]
# All processing and analysis of fluorescence and smFRET trajectories was carried out using custom-designed Matlab (Mathworks) software. Fluorescence trajectories were extracted from the recorded movies and used to calculate FRET efficiency according to FRET=ICy5/(ICy3+ICy5), where ICy5 and ICy3 are the intensities of Cy5 and Cy3 fluorescence, respectively. […]
# HIV-1 Env, sequence (P03375 33-856): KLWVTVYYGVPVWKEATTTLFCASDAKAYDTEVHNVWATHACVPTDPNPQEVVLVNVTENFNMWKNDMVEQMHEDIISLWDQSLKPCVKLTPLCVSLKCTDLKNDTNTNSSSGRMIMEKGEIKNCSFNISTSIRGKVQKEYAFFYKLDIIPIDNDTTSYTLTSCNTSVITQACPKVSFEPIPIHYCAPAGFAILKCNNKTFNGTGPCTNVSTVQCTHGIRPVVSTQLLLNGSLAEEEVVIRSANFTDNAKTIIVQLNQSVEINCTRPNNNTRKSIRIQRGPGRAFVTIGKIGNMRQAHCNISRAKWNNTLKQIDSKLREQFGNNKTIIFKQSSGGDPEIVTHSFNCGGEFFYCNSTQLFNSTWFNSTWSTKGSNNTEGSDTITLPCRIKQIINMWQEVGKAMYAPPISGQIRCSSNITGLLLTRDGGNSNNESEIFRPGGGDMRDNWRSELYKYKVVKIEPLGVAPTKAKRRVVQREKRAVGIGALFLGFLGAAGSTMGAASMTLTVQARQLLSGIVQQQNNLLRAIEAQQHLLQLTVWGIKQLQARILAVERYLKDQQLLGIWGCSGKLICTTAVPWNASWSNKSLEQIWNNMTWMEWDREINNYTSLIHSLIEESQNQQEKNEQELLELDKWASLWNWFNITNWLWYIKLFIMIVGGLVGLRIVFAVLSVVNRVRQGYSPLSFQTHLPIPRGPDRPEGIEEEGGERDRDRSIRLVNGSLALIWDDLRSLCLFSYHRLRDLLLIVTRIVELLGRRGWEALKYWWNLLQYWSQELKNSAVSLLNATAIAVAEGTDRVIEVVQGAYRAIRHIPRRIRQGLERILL
smiles,measurement,setting,value
CC1(C)CC(NC(=O)C(=O)Nc2ccc(Cl)c(F)c2)CC(C)(C)N1 [JRC-II-191],inactivation of HIV-1 Env,[1],inactivate
same,agonist/antagonist character by smFRET (activation of HIV-1 Env),[2],clear agonists
same,effect of inhibitor on smFRET state distribution of HIV-1 Env,[2],induced an intermediate-FRET state
CC1(C)CC(NC(=O)C(=O)Nc2ccc(Cl)cc2)CC(C)(C)N1 [NBD-556],agonist/antagonist character by smFRET (activation of HIV-1 Env),[2],clear agonists
same,effect of inhibitor on smFRET state distribution of HIV-1 Env,[2],induced an intermediate-FRET state

# From patent publication US9938324B2, “FRET-based reagents and methods for identifying anti-HIV compounds” (Cornell University, priority 2012, dated 2018)
